In patent US8247211B2, “Glycopeptide antibiotics” (American Cyanamid Company, priority 2001, dated 2012):

Key:
Test in all cases: In vitro antibacterial evaluation: minimum inhibitory concentration (MIC), broth dilution method
Type in all cases: cell-based
Enterococcus sp. = tested on: Enterococcus sp.
How it was run: (§1)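 Susceptibility determined by NCCLS-recommended broth dilution (M7-A2), Muller-Hinton II […]. Concentration span 64-0.06 μg/mL, inoculum 5×10^5 CFU/mL. Isolates include strains resistant to methicillin, penicillin and/or vancomycin.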

Escherichia coli = tested on: Escherichia coli
How it was run: as §1

Staphylococcus sp. = details: broth dilution, 18 hours at 35° C.
How it was run: as §1

Streptococcus sp. = tested on: Streptococcus sp.
How it was run: as §1

Di-N-(4-tert-butylbenzyl)-cyclo[glycyl-β-methylphenylalanyl-O-(4-O-hexopyranosylhexopyranosyl)tyrosyl-3-(2-iminoimidazolidin-4-yl)seryl-3-(3-hexopyranosyl-2-iminoimidazolidin-4-yl)serylseryl] [Example 60a]
MIC Enterococcus avium (GC 4558) (Enterococcus sp.; Enterococcus avium (GC 4558), broth dilution, 18 hours at 35° C.): 128 µg/mL
MIC Enterococcus faecalis (ATCC 29212) (Enterococcus sp.; Enterococcus faecalis (ATCC 29212), broth dilution, 18 hours at 35° C.): >128 µg/mL
MIC Enterococcus faecalis (GC 2242) (Enterococcus sp.; Enterococcus faecalis (GC 2242), broth dilution, 18 hours at 35° C.): >128 µg/mL
MIC Enterococcus faecalis (GC 2691) (Enterococcus sp.; Enterococcus faecalis (GC 2691), broth dilution, 18 hours at 35° C.): >128 µg/mL
MIC Enterococcus faecalis (GC 3059) (Enterococcus sp.; Enterococcus faecalis (GC 3059), broth dilution, 18 hours at 35° C.): >128 µg/mL
MIC Enterococcus faecalis (GC 4552) (Enterococcus sp.; Enterococcus faecalis (GC 4552), broth dilution, 18 hours at 35° C.): >128 µg/mL
MIC Enterococcus faecalis (GC 4553) (Enterococcus sp.; Enterococcus faecalis (GC 4553), broth dilution, 18 hours at 35° C.): 128 µg/mL
MIC Enterococcus faecalis (GC 4554) (Enterococcus sp.; Enterococcus faecalis (GC 4554), broth dilution, 18 hours at 35° C.): >128 µg/mL
MIC Enterococcus faecalis (GC 6189) (Enterococcus sp.; Enterococcus faecalis (GC 6189), broth dilution, 18 hours at 35° C.): >128 µg/mL
MIC Enterococcus faecium (GC 2243) (Enterococcus sp.; Enterococcus faecium (GC 2243), broth dilution, 18 hours at 35° C.): >128 µg/mL
MIC Enterococcus faecium (GC 4556) (Enterococcus sp.; Enterococcus faecium (GC 4556), broth dilution, 18 hours at 35° C.): >128 µg/mL
MIC Enterococcus faecium (GC 4557) (Enterococcus sp.; Enterococcus faecium (GC 4557), broth dilution, 18 hours at 35° C.): 128 µg/mL
MIC Enterococcus faecalis (ATCC 29212) (Enterococcus sp.; strain ATCC 29212): >128 µg/mL
MIC Enterococcus faecalis (GC 2242) (Enterococcus sp.; strain GC 2242): >128 µg/mL
MIC Enterococcus faecium (GC 2243) (Enterococcus sp.; strain GC 2243): >128 µg/mL
MIC Enterococcus faecalis (GC 2691) (Enterococcus sp.; strain GC 2691): >128 µg/mL
MIC Enterococcus faecalis (GC 3059) (Enterococcus sp.; strain GC 3059): >128 µg/mL
MIC Enterococcus faecalis (GC 4552) (Enterococcus sp.; strain GC 4552): >128 µg/mL
MIC Enterococcus faecalis (GC 4553) (Enterococcus sp.; strain GC 4553): 128 µg/mL
MIC Enterococcus faecalis (GC 4554) (Enterococcus sp.; strain GC 4554): >128 µg/mL
MIC Enterococcus faecium (GC 4556) (Enterococcus sp.; strain GC 4556): >128 µg/mL
MIC Enterococcus faecium (GC 4557) (Enterococcus sp.; strain GC 4557): 128 µg/mL
MIC Enterococcus avium (GC 4558) (Enterococcus sp.; strain GC 4558): 128 µg/mL
MIC Enterococcus faecalis (GC 6189) (Enterococcus sp.; strain GC 6189): >128 µg/mL
MIC Escherichia coli (ATCC 25922) (Escherichia coli; strain ATCC 25922): >128 µg/mL
MIC Escherichia coli (GC 4559) (Escherichia coli; strain GC 4559): >128 µg/mL
MIC Escherichia coli (GC 4560) (Escherichia coli; strain GC 4560): 16 µg/mL
MIC Coagulase Negative Staphylococcus (GC 4547) (Staphylococcus sp.): >128 µg/mL
MIC Coagulase Negative Staphylococcus (GC 4548) (Staphylococcus sp.): >128 µg/mL
MIC Coagulase Negative Staphylococcus (GC 4549) (Staphylococcus sp.): >128 µg/mL
MIC Coagulase Negative Staphylococcus (GC 4551) (Staphylococcus sp.): >128 µg/mL
MIC Coagulase Negative Staphylococcus (GC 6257) (Staphylococcus sp.): >128 µg/mL
MIC Staphylococcus aureus (ATCC 29213) (Staphylococcus sp.): >128 µg/mL
MIC Staphylococcus aureus (GC 1131) (Staphylococcus sp.): >128 µg/mL
MIC Staphylococcus aureus (GC 3051) (Staphylococcus sp.): >128 µg/mL
MIC Staphylococcus aureus (GC 3053) (Staphylococcus sp.): >128 µg/mL
MIC Staphylococcus aureus (GC 4541) (Staphylococcus sp.): >128 µg/mL
MIC Staphylococcus aureus (GC 4542) (Staphylococcus sp.): >128 µg/mL
MIC Staphylococcus aureus (GC 4544) (Staphylococcus sp.): >128 µg/mL
MIC Staphylococcus aureus (GC 4545) (Staphylococcus sp.): >128 µg/mL
MIC Staphylococcus aureus SMITH (GC 4543) (Staphylococcus sp.): >128 µg/mL
MIC Staphylococcus haemolyticus (GC 4546) (Staphylococcus sp.): >128 µg/mL
MIC Staphylococcus aureus (ATCC 29213) (Staphylococcus sp.; strain ATCC 29213): >128 µg/mL
MIC Staphylococcus aureus (GC 1131) (Staphylococcus sp.; strain GC 1131): >128 µg/mL
MIC Staphylococcus aureus (GC 3051) (Staphylococcus sp.; strain GC 3051): >128 µg/mL
MIC Staphylococcus aureus (GC 3053) (Staphylococcus sp.; strain GC 3053): >128 µg/mL
MIC Staphylococcus aureus (GC 4541) (Staphylococcus sp.; strain GC 4541): >128 µg/mL
MIC Staphylococcus aureus (GC 4542) (Staphylococcus sp.; strain GC 4542): >128 µg/mL
MIC Staphylococcus aureus (GC 4544) (Staphylococcus sp.; strain GC 4544): >128 µg/mL
MIC Staphylococcus aureus (GC 4545) (Staphylococcus sp.; strain GC 4545): >128 µg/mL
MIC Staphylococcus haemolyticus (GC 4546) (Staphylococcus sp.; strain GC 4546): >128 µg/mL
MIC Coagulase Negative Staphylococcus (GC 4547) (Staphylococcus sp.; strain GC 4547): >128 µg/mL
MIC Coagulase Negative Staphylococcus (GC 4548) (Staphylococcus sp.; strain GC 4548): >128 µg/mL
MIC Coagulase Negative Staphylococcus (GC 4549) (Staphylococcus sp.; strain GC 4549): >128 µg/mL
MIC Coagulase Negative Staphylococcus (GC 4551) (Staphylococcus sp.; strain GC 4551): >128 µg/mL
MIC Coagulase Negative Staphylococcus (GC 6257) (Staphylococcus sp.; strain GC 6257): >128 µg/mL
MIC Staphylococcus aureus-SMITH (GC 4543) (Staphylococcus sp.; strain SMITH GC 4543): >128 µg/mL
MIC Streptococcus agalactiae (GC 4564) (Streptococcus sp.; Streptococcus agalactiae (GC 4564), broth dilution, 18 hours at 35° C.): >128 µg/mL
MIC Streptococcus pneumoniae (ATCC 6301) (Streptococcus sp.; Streptococcus pneumoniae (ATCC 6301), broth dilution, 18 hours at 35° C.): >128 µg/mL
MIC Streptococcus pneumoniae (GC 1894) (Streptococcus sp.; Streptococcus pneumoniae (GC 1894), broth dilution, 18 hours at 35° C.): 64 µg/mL
MIC Streptococcus pneumoniae (GC 4565) (Streptococcus sp.; Streptococcus pneumoniae (GC 4565), broth dilution, 18 hours at 35° C.): 128 µg/mL
MIC Streptococcus pyogenes (GC 4563) (Streptococcus sp.; Streptococcus pyogenes (GC 4563), broth dilution, 18 hours at 35° C.): >128 µg/mL
MIC Streptococcus pneumoniae (ATCC 6301) (Streptococcus sp.; strain ATCC 6301): >128 µg/mL
MIC Streptococcus pneumoniae (GC 1894) (Streptococcus sp.; strain GC 1894): 64 µg/mL
MIC Streptococcus pyogenes (GC 4563) (Streptococcus sp.; strain GC 4563): >128 µg/mL
MIC Streptococcus agalactiae (GC 4564) (Streptococcus sp.; strain GC 4564): >128 µg/mL
MIC Streptococcus pneumoniae (GC 4565) (Streptococcus sp.; strain GC 4565): 128 µg/mL
